Values of other authors in US9771618B2, “Methods for treating breast cancer” (Bioarray Genetics, Inc., priority 2009, dated 2017).

System: locally advanced breast cancer
Conditions: 24 tumors of the Chang, et al. dataset (10 of 24); response assessed after neoadjuvant chemotherapy

## CC(=O)O[C@H]1C(=O)[C@@]2(C)[C@H]([C@H](OC(=O)c3ccccc3)[C@]3(O)C[C@H](OC(=O)[C@H](O)[C@@H](NC(=O)c4ccccc4)c4ccccc4)C(C)=C1C3(C)C)[C@]1(OC(C)=O)CO[C@@H]1C[C@@H]2O [taxol, paclitaxel]
  overall taxol sensitive rate: 41.7%
